Earlier results in patent US20110294763A1, “TRANSDERMAL DELIVERY OF DICOLFENAC, CARBAMAZEPINE AND BENZYDAMINE” (priority 2009, published 2011).

CN(C)CCCOc1nn(Cc2ccccc2)c2ccccc12 [Benzydamine base]
Solubility in water: insoluble
